Measurements published in patent US5645995A, “Methods for diagnosing an increased risk for breast or ovarian cancer” (Baylor College of Medicine, priority 1996, dated 1997).
Positions count from the first letter of the chain named. pKd: −log10 of the molar value.

Key:
[1] = biological target: T1, mutant human progesterone receptor (valine to leucine at amino acid 660) (Homo sapiens, UniProt P06401, V660L); assay: Hormone-binding Whole Cell Assay with Scatchard analysis, COS cells expressing mutant receptor; conditions: COS cells infected with 250 ng receptor DNA, 50-6400 pM [3H]R5020 overnight, Scatchard analysis (FIG. 7B), read-out: dissociation constant
T1 construct: expressed in transfected cells; host or cells: COS cells (no endogenous progesterone receptor), pcDNAI/Amp vector
T1 sequence (P06401 1-933 V660L): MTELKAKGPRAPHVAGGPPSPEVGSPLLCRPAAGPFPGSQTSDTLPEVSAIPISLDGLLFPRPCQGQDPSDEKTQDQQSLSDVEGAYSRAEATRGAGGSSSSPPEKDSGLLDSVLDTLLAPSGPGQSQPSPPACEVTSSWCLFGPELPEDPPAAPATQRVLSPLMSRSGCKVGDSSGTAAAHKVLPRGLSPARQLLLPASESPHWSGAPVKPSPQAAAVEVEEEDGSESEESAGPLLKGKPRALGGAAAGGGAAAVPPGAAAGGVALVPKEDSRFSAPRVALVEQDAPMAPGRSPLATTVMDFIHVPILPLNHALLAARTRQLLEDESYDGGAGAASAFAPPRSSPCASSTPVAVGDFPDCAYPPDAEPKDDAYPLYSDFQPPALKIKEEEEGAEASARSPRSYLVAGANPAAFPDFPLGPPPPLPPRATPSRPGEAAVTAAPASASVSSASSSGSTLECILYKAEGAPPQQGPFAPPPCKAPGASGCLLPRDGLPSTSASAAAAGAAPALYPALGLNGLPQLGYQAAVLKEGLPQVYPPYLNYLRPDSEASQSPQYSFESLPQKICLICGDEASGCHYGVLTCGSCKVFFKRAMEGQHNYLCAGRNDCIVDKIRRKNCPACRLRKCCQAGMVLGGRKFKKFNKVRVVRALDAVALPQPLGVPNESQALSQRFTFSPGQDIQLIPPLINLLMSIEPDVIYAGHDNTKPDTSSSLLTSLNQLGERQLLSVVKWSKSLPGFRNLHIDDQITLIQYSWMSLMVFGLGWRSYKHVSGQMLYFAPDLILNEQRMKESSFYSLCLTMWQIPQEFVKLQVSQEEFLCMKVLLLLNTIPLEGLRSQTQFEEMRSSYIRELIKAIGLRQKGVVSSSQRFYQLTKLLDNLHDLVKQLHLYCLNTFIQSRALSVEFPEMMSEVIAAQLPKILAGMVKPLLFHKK
Description: (§1) To determine whether the increase in transcriptional activity found above was due to changes in hormone-binding affinity, hormone binding affinity was measured in a Whole Cell Assay, as described by Bai et al, Mol. Endo., 8(11):1465-1473 (1994), using DNA encoding both the mutant and wild-type progesterone receptor proteins.
(§2) More specifically, COS cells were infected with 250 ng of either mutant or wild-type receptor DNA, as described above, and the infected cells were incubated overnight in DME containing 5.0% (v/v) fetal calf serum and 50-6400 pM of [^3 H]R5020 (DuPont NEN, NET-555) before harvesting. Next, the harvested cells were subjected to ethanol extraction, and bound hormone was measured by CPM counting of the extracts.

[2] = biological target: T2, wild-type human progesterone receptor (Homo sapiens, UniProt P06401); assay: Hormone-binding Whole Cell Assay with Scatchard analysis, COS cells expressing wild-type receptor; conditions: COS cells infected with 250 ng receptor DNA, 50-6400 pM [3H]R5020 overnight, Scatchard analysis (FIG. 7B), read-out: dissociation constant
T2 construct: expressed in transfected cells; host or cells: COS cells (no endogenous progesterone receptor), pcDNAI/Amp vector
T2 sequence (P06401 1-933): T1 sequence (P06401 1-933 V660L) with L660V
Description: as §1, §2

A pKd [1] of 9.60 and a pKd [2] of 9.60 were found for `CCC(=O)[C@@]1(C)CC[C@H]2[C@@H]3CCC4=CC(=O)CCC4=C3CC[C@@]21C` [R5020] in this work.
